# Data reported in publication PMC11077991, “The small molecule CBR-5884 inhibits the Candida albicans phosphatidylserine synthase” (mBio, 2024).
# Assays:
# [1] = tested on: cancer cell lines with high serine biosynthetic activity (melanoma and breast cancer lines); design: method as in PMID 26831078; conditions: cited from earlier work
# [2] = tested on: phospholipid levels in C. albicans; assay: thin-layer chromatography of phospholipids; type: cell-based, Candida albicans; conditions: 170 µM, 2 h
# Procedure: Wild-type SC5314 and cho1ΔΔ strains grown overnight in YPD were inoculated into fresh YPD at OD600 of 0.1 and were shaken for another 3 h. Then, 170 µM CBR-5884 or equivalent DMSO solvent was added to both wild-type and cho1ΔΔ cultures, and cells were shaken for another 2 h. Then, cells were washed with 1× PBS three times and normalized to a total OD600 of 1. The phospholipids were extracted with the hot ethanol method as described in reference ([14]). A Whatman 250 µm silica gel aluminum backed plate was treated, and separation of phospholipids was carried out as described in reference ([100]). Phospholipid standards PI, PE, PS, and PC were purchased from Avanti. The quantification of the phospholipids was done in ImageJ software.
# [3] = tested on: wild-type C. albicans cell wall β(1-3)-glucan exposure; assay: fluorescence imaging of unmasked β(1-3)-glucan; type: cell-based, Candida albicans; conditions: 170 µM, YPD
# Procedure: Wild-type and cho1ΔΔ cells were grown in YPD overnight (~16 h), and back diluted to fresh YPD with OD600 of ~0.1. The cells were then shaken at 225 rpm for 3 h before 170 µM CBR-5884 or equivalent DMSO were added. The cells were further shaken for 30, 60, 120 min before staining with anti-β(1-3)-glucan antibody. The cells were stained as previously described ([57], [97]) with the exception that goat anti-mouse antibody conjugated to Alexa Fluor 488 (Jackson ImmunoResearch) was used as the secondary antibody. For imaging, Candida cells were resuspended in 200 µL of Fluoromount-G mounting medium and visualized with a Leica SP8 white light laser confocal microscope. The pictures were taken through Leica Application Suite X office software and quantified as described above.
smiles,measurement,setting,value
CCOC(=O)c1sc(NC(=O)c2ccco2)c(SC#N)c1C [CBR-5884],toxicity to cancer cell lines,[1],selectively toxic
same,PI levels,[2],not strongly affected
same,relative PS level in wild-type strain vs DMSO,[2],significantly dropped
same,relative PE levels,[2]; wild-type and cho1ΔΔ,significantly decreased
same,β(1-3)-glucan unmasking vs wild-type in DMSO,[3]; 30-min treatment,significantly increased unmasking
same,β(1-3)-glucan unmasking vs cho1ΔΔ mutant,[3]; 120-min treatment,more unmasking than the cho1ΔΔ mutant
